Assay results reported in patent US5310667A (priority 1989, dated 1994).
Values after ≈ are worked out from the molar mass of the structure shown. “Also recorded” adds a separate entry of the source.

Tests used:
[1] = molecular target: wild type petunia EPSP synthase (Petunia hybrida, UniProt P11043); experiment: EPSP synthase kinetic constants (appKi glyphosate, appKm PEP); format: biochemical
Procedure: The reaction was quenched by the addition of 50 μl of 50 μl of 90% ethanol/0.1M acetic acid, pH 4.5. 70 μl of the reaction mixture was loaded on a SynchroPak AX100 HPLC column (0.4×25 cm) and the column was eluted with 0.5M potassium phosphate, pH 5.5 at 1 ml/min. The radioactivity of the eluent was monitored using a Radiomatic Flo-One Beta Instrument. […] The protein content of the extract was determined by the method of Bradford (Biorad Labs, Calif.). The specific activity of the extract is expressed as nanomoles of EPSP synthase formed/min/mg protein.
Reactions were quenched with 100 mM Na Acetate in ethanol, pH 4.5, centrifuged and analyzed for product EPSP formation by HPLC with flow radioactivity detection. HPLC conditions were 0.35 MKPi, pH 6.5, on a Synchropak AX100 column at 1.0 ml/min.

[2] = tested on: E. coli SR481 (aroA-) carrying pMON8152; experiment: Growth on minimal medium containing glyphosate; format: cell-based
Procedure: The heterologous expression system was tested with a known variant to see if glyphosate resistant variants of petunia EPSPS could be selected. […] That was achieved by replacing the 660 bp EcoRI-HindIII region from both vectors with the 660 bp EcoRI-HindIII region from pMON9566 which contained the glycine (101) to alanine mutation.

E. coli strain JM101 = experiment: Growth on minimal medium plates with increasing glyphosate; format: cell-based; conditions: Escherichia coli, read-out: glyphosate concentration that inhibits endogenous EPSP synthase activity and growth on minimal media
From the text: A multi-step screening procedure was used to identify glyphosate resistant variants of petunia EPSPS.

[3] = tested on: control petunia plants (wildtype or control vector pMON505); experiment: Plant response to glyphosate spraying; format: in vivo; conditions: 0.8 #/acre acid equivalent, isopropylamine salt, sprayed
Procedure: (§1) Four individual representative transgenic seedlings were selected, grown and tested in the testing procedure described below, along with four individual non-transformed (wild-type) petunia seedlings.
(§2) The plants were grown in a growth medium in a growth chamber at 26° C. with 12 hours of light per day. The plants were fertilized weekly with a soluble fertilizer and watered as needed. The plants were sprayed at a uniform and reproducible delivery rate of herbicide by use of an automated track sprayer. The glyphosate solution used was measured as pounds of glyphosate acid equivalents per acre, mixed as the glyphosate isopropylamine salt, with an ionic surfactant.
(§3) Four individual wild-type (non-transformed) petunia plants were selected for use as control plants. Four individual transformed plants containing the pMON546 vector were selected by kanamycin resistance as described by Horsch, et al. (1985).
(§4) The control plants and the transformed plants were sprayed with the isopropylamine salt of glyphosate at the application level listed in Table 2 below; the experimental results obtained are also summarized in Table 2.

[4] = tested on: transformed petunia plants containing pMON546 (Chimeric EPSP); experiment: Plant response to glyphosate spraying; format: in vivo; conditions: 0.8 #/acre acid equivalent, isopropylamine salt, sprayed
Procedure: as §1, §2, §3, §4

[5] = tested on: tobacco plants transformed with glyphosate-tolerant petunia EPSP synthase gene (pMON567); experiment: Relative effect of glyphosate spraying on transformed tobacco; format: in vivo, Nicotiana tobacam CV H425; parameters: key: 0 = total kill, 10 = normal unsprayed plant; conditions: GT, 0 total kill, 10 no effect, best transformant
Procedure: Plasmid pMON530 DNA was digested with BglII and ClaI, to which was added the 330 bp BglII-EcoRI EPSP synthase 5' fragment from pMON536 and purified 1.4 kb EcoRI-ClaI EPSP synthase 3' fragment from pMON9566 and then treated with T4 DNA ligase. Following transformation a plasmid was isolated that carried the intact glycine (101) to alanine variant EPSP synthase coding sequence of petunia (with the coding sequence for the chloroplast transmit peptide) adjacent to the CaMV35S promoter. This plasmid was designated pMON567. Plasmid pMON567 was inserted into A. tumefaciens cells that contained helper plasmid pGV3111-SE.
(§5) A culture of A. tumefaciens cells containing pMON567/pGV3111-SE was contacted with leaf disks taken from tobacco plants (Nicotiana tobacam CV H425) as described by Horsch (1985). The Agrobacterium cells inserted the variant EPSP synthase gene into the chromosomes of the plant cells. Plant cells resistant to kanamycin were selected and regenerated into differentiated plants by the procedure of Horsch (1985).
(§6) Progeny of these plants were propagated and grown to a rosette diameter of about 10 cm corresponding to a plant age of about four weeks. The plants were sprayed with glyphosate at levels corresponding to 0.4, 2.0 and 3.6 pounds acid equiv./acre. The effect of glyphosate on the transformed plants were scored at 7, 14 and 28 days. The effect was translated to a numerical scale of 0-10 in which 0 represents total kill and 10 is the normal, unsprayed plant. […] The values represent the best transformant for both wild-type EPSP synthase and glyphosate-tolerant EPSP synthase genes.

[6] = tested on: tobacco plants transformed with wild-type EPSP synthase gene; experiment: as above; format: in vivo, Nicotiana tobacam CV H425; conditions: WT, 0 total kill, 10 no effect, best transformant
From the text: as §5, §6

[7] = tested on: variant soybean EPSPS (gly 104 to ala, gly 147 to asp) from pMON9953; experiment: Glyphosate tolerance of EPSP synthase extracted from bacteria; format: biochemical, Glycine max; conditions: enzyme extracted from E. coli SR481 with pMON9953
From the text: An E. coli expression vector for wild type soybean EPSPS was constructed by engineering an NcoI site at the predicted start of the mature soybean coding sequence by the method of Kunkel (1985). This sequence was then inserted into pMON9563, replacing the coding sequence for mature petunia EPSPS resulting in pMON9904.

[8] = molecular target: petunia EPSP synthase with alanine for the first glycine of the conserved region (Petunia hybrida, UniProt P11043, G170A); experiment: Glyphosate sensitivity of EPSP synthase variant; format: biochemical; conditions: relative to wild type
petunia EPSP synthase with alanine for the first glycine of the conserved region, sequence (P11043 73-516 G170A): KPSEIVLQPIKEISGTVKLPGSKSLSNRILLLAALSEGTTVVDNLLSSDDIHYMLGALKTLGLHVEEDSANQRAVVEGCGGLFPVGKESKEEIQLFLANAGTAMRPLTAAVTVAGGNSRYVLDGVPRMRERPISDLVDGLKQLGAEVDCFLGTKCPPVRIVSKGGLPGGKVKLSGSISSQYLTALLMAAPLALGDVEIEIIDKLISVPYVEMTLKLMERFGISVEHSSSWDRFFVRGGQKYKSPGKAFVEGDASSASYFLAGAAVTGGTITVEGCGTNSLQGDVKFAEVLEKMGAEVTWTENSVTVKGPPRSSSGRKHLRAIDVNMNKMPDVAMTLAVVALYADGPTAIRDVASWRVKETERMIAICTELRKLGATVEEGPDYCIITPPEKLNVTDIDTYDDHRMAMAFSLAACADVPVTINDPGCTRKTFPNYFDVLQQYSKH

wild type petunia EPSP synthase, sequence (P11043 73-516): as the sequence (P11043 73-516 G170A) above, with A98G counted along it

Compound: O=C(O)CNCP(=O)(O)O [glyphosate, N-phosphonomethylglycine]
- Ki [1]: 400 nM
- glyphosate concentration up to which growth on minimal medium is supported [2]: up to 50 mM
- MIC (E. coli strain JM101): 2000 µM (≈ 338 µg/mL)
- Visual Appearance [3]: completely dead; also recorded: killed
- Visual Appearance [4]: growing well; also recorded: healthy and viable
- Relative Effect of Glyphosate ([5]; 0.4 pounds/Acre, day 7): 8.0
- Relative Effect of Glyphosate ([5]; 0.4 pounds/Acre, day 14): 8.0
- Relative Effect of Glyphosate ([5]; 0.4 pounds/Acre, day 28): 9.0
- Relative Effect of Glyphosate ([5]; 2.0 pounds/Acre, day 7): 8.0
- Relative Effect of Glyphosate ([5]; 2.0 pounds/Acre, day 14): 8.3
- Relative Effect of Glyphosate ([5]; 2.0 pounds/Acre, day 28): 7.0
- Relative Effect of Glyphosate ([5]; 3.6 pounds/Acre, day 7): 5.0
- Relative Effect of Glyphosate ([5]; 3.6 pounds/Acre, day 14): 7.4
- Relative Effect of Glyphosate ([5]; 3.6 pounds/Acre, day 28): 7.0
- Relative Effect of Glyphosate ([6]; 0.4 pounds/Acre, day 7): 6.0
- Relative Effect of Glyphosate ([6]; 0.4 pounds/Acre, day 14): 7.0
- Relative Effect of Glyphosate ([6]; 0.4 pounds/Acre, day 28): 9.0
- Relative Effect of Glyphosate ([6]; 2.0 pounds/Acre, day 7): 5.0
- Relative Effect of Glyphosate ([6]; 2.0 pounds/Acre, day 14): 1.8
- Relative Effect of Glyphosate ([6]; 2.0 pounds/Acre, day 28): 0.8
- Relative Effect of Glyphosate ([6]; 3.6 pounds/Acre, day 7): 5.0
- Relative Effect of Glyphosate ([6]; 3.6 pounds/Acre, day 14): 1.7
- Relative Effect of Glyphosate ([6]; 3.6 pounds/Acre, day 28): 0.8
- glyphosate tolerance of extracted EPSP synthase [7]: glyphosate tolerant
- change in glyphosate sensitivity [8]: no attendant changes in glyphosate sensitivity
